Source: patent US20090305955A1, “Cyclopeptide with Anti-Cancer Activity Derived from Collagen Type IV” (priority 2006, published 2009)
Where a SMILES comes first, the peptide text is derived from it.

Legend:
[1] = system: B16F1 murine melanoma cells; assay: Measurement of in vivo tumour growth, pre-incubated B16F1 cells injected s.c.; set-up: species or system C57BL6 mice; settings: day 20; for in vivo tumour growth: B16F1 cells pre-incubated 15 minutes with 20 μM peptide, s.c. in C57BL6 mice
Protocol: FIG. 16: In vivo tumour growth in the presence of YSNSG (SEQ ID NO: 3) cyclopeptide. B16F1 cells were incubated for 15 minutes with a control medium (negative control, white diamonds), with the linear heptapeptide CNYYSNS (SEQ ID NO: 5) (20 μM) (positive control, black diamonds) or with the cyclopeptide YSNSG (SEQ ID NO: 3) at a concentration of 20 μM (grey diamonds), then injected subcutaneously into syngenic C57BL6 mice (2.5×10^5 cells per mouse). The tumour volume was measured on the 20th day;
Female C57BL6 mice (mean body weight 18 to 20 g) were purchased from Harlan France (Gannat, France). The animals were placed in individual cages at a constant temperature and humidity; food and water were supplied ad libitum. All of the mice underwent a 1 week acclimatization period before commencing the experiments. The in vivo experiments were carried out in accordance with the recommendations of the Centre National de la recherché Scientifique (CNRS, National Centre for Scientific Research).
A suspension of B16F1 cells (2.5×10^5 cells in RPMI 1640 medium) which may or may not have been pre-treated with the cyclopeptide YSNSG (SEQ ID NO: 3) (20 μM) was injected subcutaneously into the left flank of syngenic mice from a different series. The mice were sacrificed on day 20 and the tumour size was measured. The volume of the tumours was determined by the relationship V=½A×B^2 in which A and B respectively represent the largest and the smallest dimension of the tumour (Wald et al).

MMP-2 = assay: Zymography in the presence of gelatine, conditioned medium of UACC-903 cells; assay type: cell-based, human; settings: cyclopeptide 5 to 20 μM, linear heptapeptide 20 μM
Protocol: (§1) FIG. 11: Effect of YSNSG (SEQ ID NO: 3) cyclopeptide on secretion of MMP-2 and MMP-9. The secretion of MMP-2 and MMP-9 was analyzed by zymography in the presence of gelatine (A), on a medium conditioned by UACC-903 cells in the absence of peptide (negative control, white bar), on cells treated with linear heptapeptide CNYYSNS (SEQ ID NO: 5) (20 μM) (positive control, black bar) or cells treated with concentrations of 5 μM to 20 μM of cyclopeptide (grey bars) YSNSG (SEQ ID NO: 3). The conditioned medium was collected and analyzed as described in the method. Quantification was carried out using Bio 1D software. B: quantification of proMMP2; C: quantification of proMMP-9 (A.U.: arbitrary unit);
(§2) The expression of MMP-2 and MMP-9 in a conditioned medium of UACC-903 cells, treated or not treated with synthetic peptides, was analyzed by zymography in the presence of gelatine as described above (Pasco et al, 2000(a)). The secretion of TIMP-2 was analyzed in a conditioned medium of UACC-903 cells by reverse zymography in the presence of gelatine, as described above (Pascal et al, 2000(a)).

MMP-9 = assay: as above; assay type: cell-based, human; settings: cyclopeptide 5 to 20 μM, linear heptapeptide 20 μM
Protocol: as §1, §2

MMP-14 = assay: Western blot of proMMP-14 / MMP-14, UACC-903 cells; assay type: cell-based, human; settings: 20 μM
Protocol: FIG. 12: Effect of YSNSG (SEQ ID NO: 3) cyclopeptide on expression and activation of MMP-14. Expression of proMMP-14 (white bar) and MMP-14 (black bar) was studied by Western Blot (A) in a medium conditioned by UACC-903 cells in the absence of peptide (control), on cells treated with the linear heptapeptide CNYYSNS (SEQ ID NO: 5) (20 μm) or treated with the cyclopeptide YSNSG (SEQ ID NO: 3) at a concentration of 20 μM (cyclopeptide YSNSG (SEQ ID NO: 3)). The conditioned medium was recovered and analyzed as described in the methods. Quantification was carried out using Bio 1D software. (B);
The samples underwent 10% polyacrylamide gel electrophoresis in the presence of 0.1% SDS then were transferred onto Immobilon-P membranes (Millipore, St Quentin en Yvelines, France). The membranes were saturated with 5% freeze dried skimmed milk, Tween 20 0.1% in a 50 mM Tris-HCl, 150 mM NaCl buffer, pH 7.5 (TBS) for 2 hours at ambient temperature. The membranes were then incubated overnight at 4° C. with anti-MMP-14, anti-PAI-1 and anti-u-PAR antibodies then incubated for one hour at ambient temperature with a secondary antibody (anti-IgG) conjugated with peroxidase. The immune complexes were visualized with an ECL chemoluminescence detection kit.

u-PA = assay: Zymography in the presence of gelatine and plasminogen, HUVEC conditioned medium; assay type: cell-based, human; settings: 20 μM
Protocol: FIG. 20: Effect of YSNSG (SEQ ID NO: 3) cyclopeptide on the secretion of plasminogen activators. The secretion of u-PA and t-PA was analyzed by zymography in the presence of gelatine and plasminogen (A) in a medium conditioned by HUVEC cells in the absence (control) or in the presence of 20 μM of cyclopeptide YSNSG (SEQ ID NO: 3). Quantification was carried out using Bio 1D software (B);
To determine the plasminogen activities, conditioned media of UACC-903 cells were analyzed by polyacrylamide gel electrophoresis in the presence of SDS and containing 1 mg/ml of gelatine and 10 μg/ml of plasminogen. After electrophoresis, the gels were incubated overnight at ambient temperature in a 100 mM glycine, 5 mM EDTA, pH 8.0 buffer.

phospho-FAK = assay: Phospho-FAK immunolabelling, HUVEC cells; assay type: cell-based, human; settings: 20 μM, 48 h
Protocol: FIG. 22: Effect of YSNSG (SEQ ID NO: 3) cyclopeptide on the organization of the cytoskeleton of HUVEC cells. The cells were cultivated on glass slides in the absence (control) or in the presence of 20 μM of YSNSG (SEQ ID NO: 3) cyclopeptide. After 48 h of incubation, the cells were fixed, permeabilized, incubated with phalloidin (A) or with an anti-Phospho-FAK antibody (B) then with Hoechst-33342. The slides were observed under a confocal microscope;
The cells were seeded onto sterile glass slides placed in 24-well plates (2×10^4 cells/well) in a suitable medium containing 5% serum in the presence or absence of YSNSG (SEQ ID NO: 3) cyclopeptide. After 24 and 48 hours incubation, the cells were fixed for 15 minutes in methanol. Three washes of 5 minutes in TBS-T were carried out, then the cells were incubated for 30 minutes at ambient temperature in a saturation solution (TBS-T containing 3% BSA). The cells were then incubated for 2 hours at ambient temperature in the presence of primary antibody diluted to 1/100 in TBS-T containing 3% BSA.

Row | Compound | in vivo tumour growth [1] | secretion of MMP-2 (MMP-2) | secretion of MMP-9 (MMP-9) | activation of proMMP-14 (MMP-14) | expression of proMMP-14 (MMP-14) | reduction in tumour volume ([1]; B16F1 cells pre-treated with 20 μM, no re-injection of peptide, C57BL6 mice) [%] | reduction in the production of u-PA (u-PA) [%] | expression of the phosphorylated form of focal adhesion kinase (phospho-FAK) (phospho-FAK)
1 | CNYYSNS (Synthetic linear heptapeptide) [linear peptide NC1 [α3(IV) 185-191], the 7 N-terminal amino acids of the 185-203 domain; positive control, reference compound] | inhibited tumour growth | No significant change | No significant change | same intensity | same intensity | – | – | –
2 | NC(=O)CC1NC(=O)C(CO)NC(=O)C(Cc2ccc(O)cc2)NC(=O)CNC(=O)C(CO)NC1=O (stereo not shown) [cyclopeptide YSNSG, cyclopeptide YSNSG (SEQ ID NO: 3)] (cyclo(GYSNS); configuration not given here) | inhibited tumour growth | No significant change | No significant change | completely abolished | strongly inhibited | 46 | −27 | reduction
